Reference: ChEMBL document CHEMBL1201862, “PubChem BioAssay data set” (2004)
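Dose response: 5 concentrations. Exposure: 48 h. Format: 96-well plates. Endpoint: linear interpolation; highest concentration if not reached. The concentration for 50% growth inhibition is given as GI50.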 The source made the active and inactive calls. No stated cut-off is given here; in the data, active = GI50 up to about 1.1 µM and inactive = higher.

Legend:
Test in all cases: inhibition of tumour cell growth, NCI panel, 48 h
NCI-H226 = test system: NCI-H226
HOP-92 = test system: HOP-92
HCC 2998 = test system: HCC 2998
OVCAR-3 = test system: OVCAR-3
LOX IMVI = test system: LOX IMVI
MDA-MB-231 = test system: MDA-MB-231
HT-29 = test system: HT-29
UACC-257 = test system: UACC-257
NCI-H460 = test system: NCI-H460
Malme-3M = test system: Malme-3M
SN12C = test system: SN12C
SK-OV-3 = test system: SK-OV-3
NCI-H522 = test system: NCI-H522
CAKI-1 = test system: CAKI-1
UO-31 = test system: UO-31
MDA-MB-435 = test system: MDA-MB-435
SF-268 = test system: SF-268
RXF 393 = test system: RXF 393
Hs-578T = test system: Hs-578T
MCF7 = test system: MCF7

Structure (SMILES)	GI50 (NCI-H226)	GI50 (HOP-92)	GI50 (HCC 2998)	GI50 (OVCAR-3)	GI50 (LOX IMVI)	GI50 (MDA-MB-231)	GI50 (HT-29)	GI50 (UACC-257)	GI50 (NCI-H460)	GI50 (Malme-3M)	GI50 (SN12C)	GI50 (SK-OV-3)	GI50 (NCI-H522)	GI50 (CAKI-1)	GI50 (UO-31)	GI50 (MDA-MB-435)	GI50 (SF-268)	GI50 (RXF 393)	GI50 (Hs-578T)	GI50 (MCF7)
N#Cc1c(-c2ccc(Cl)cc2)c(-c2ccc(Cl)cc2)nn(CCOC(=O)CCC(=O)O)c1=O	0.258 µM (active)	< 0.01 µM (active)	0.618 µM (active)	0.361 µM (active)	0.667 µM (active)	2.65 µM (inactive)	0.796 µM (active)	9.64 µM (inactive)	0.807 µM (active)	1.02 µM (active)	0.851 µM (active)	0.778 µM (active)	0.51 µM (active)	1.83 µM (inactive)	1.11 µM (active)	0.0773 µM (active)	0.809 µM (active)	0.327 µM (active)	1.38 µM (inactive)	0.165 µM (active)
CC(C)COC(=O)OC(=O)c1ccc(N(C)Cc2cnc3nc(N)nc(N)c3n2)cc1	> 100 µM (inactive)	47.5 µM (inactive)	> 100 µM (inactive)	> 100 µM (inactive)	1.41 µM (inactive)	> 100 µM (inactive)	26.9 µM (inactive)	47.3 µM (inactive)	5.64 µM (inactive)	36.1 µM (inactive)	> 100 µM (inactive)	> 100 µM (inactive)	23.1 µM (inactive)	> 32.1 µM (inactive)	> 51.3 µM (inactive)	> 100 µM (inactive)	9.89 µM (inactive)	16.1 µM (inactive)	> 100 µM (inactive)	6.35 µM (inactive)
O=C(NCc1ccccc1)c1cc2ccccc2o/c1=N\c1cccc(C(F)(F)F)c1	29.8 µM (inactive)	75.2 µM (inactive)	21.2 µM (inactive)	67.3 µM (inactive)	35.6 µM (inactive)	75.7 µM (inactive)	35.9 µM (inactive)	29.5 µM (inactive)	41.2 µM (inactive)	48.1 µM (inactive)	29.3 µM (inactive)	> 100 µM (inactive)	39 µM (inactive)	> 100 µM (inactive)	79.1 µM (inactive)	46 µM (inactive)	> 100 µM (inactive)	78 µM (inactive)	> 100 µM (inactive)	42.5 µM (inactive)
CSC(SC)=C(C#N)C(=O)Nc1ccc(C)cc1	> 100 µM (inactive)	15.5 µM (inactive)	> 100 µM (inactive)	> 100 µM (inactive)	> 100 µM (inactive)	> 100 µM (inactive)	> 100 µM (inactive)	> 100 µM (inactive)	> 100 µM (inactive)	> 100 µM (inactive)	> 100 µM (inactive)	> 100 µM (inactive)	28.9 µM (inactive)	42.8 µM (inactive)	61 µM (inactive)	> 100 µM (inactive)	> 100 µM (inactive)	> 100 µM (inactive)	> 100 µM (inactive)	71.9 µM (inactive)
CC(CN(C)C)C(C#N)(c1ccccc1)c1ccccc1 (stereo not given)	> 100 µM (inactive)	43.4 µM (inactive)	43.8 µM (inactive)	> 100 µM (inactive)	> 100 µM (inactive)	> 100 µM (inactive)	63.7 µM (inactive)	> 100 µM (inactive)	> 100 µM (inactive)	> 100 µM (inactive)	> 100 µM (inactive)	> 100 µM (inactive)	> 100 µM (inactive)	> 100 µM (inactive)	> 100 µM (inactive)	> 100 µM (inactive)	> 100 µM (inactive)	> 100 µM (inactive)	> 100 µM (inactive)	> 100 µM (inactive)
NC(=S)Nc1ccc2c(c1)oc1ccccc12	39 µM (inactive)	> 100 µM (inactive)	> 100 µM (inactive)	> 100 µM (inactive)	> 100 µM (inactive)	> 100 µM (inactive)	> 100 µM (inactive)	> 100 µM (inactive)	> 100 µM (inactive)	8.11 µM (inactive)	> 100 µM (inactive)	> 100 µM (inactive)	7.57 µM (inactive)	> 100 µM (inactive)	> 28.4 µM (inactive)	> 100 µM (inactive)	> 100 µM (inactive)	> 100 µM (inactive)	> 100 µM (inactive)	8.73 µM (inactive)
